Results: patent US5783703A, “Sulfur-containing compounds method for their use and prodction” (Lederle (Japan), Ltd., priority 1993, dated 1998)
In brackets after ≈: the same amount, converted by molar mass.

Columns and labels:
Assay in all cases: Antibacterial activity, agar plate dilution method (MIC), Experimental Example 2
Format in all cases: cell-based
[1] = test system: K. pneumoniae PCI-602; conditions: Klebsiella pneumoniae, PCI602, MH agar, 37° C., 18 hours
Procedure: (§1) There was measured, by the following method, the antibacterial activity of the compound (16) which had been produced in Example 14 with use of the compound (I) of the present invention as a synthesis intermediate.
(§2) There was employed the agar plate dilution method in accordance with the standard method of the Japanese Chemotherapy Society [Chemotherapy, vol. 29, 76-79 (1981)]. Concretely, a Mueller-Hinton (MH) agar liquid medium containing the test microorganism was cultured overnight at 37° C., and the resultant culture medium was diluted with a buffered saline gelatin (BSG) solution so that the concentration of the test microorganism might be about […]. Then, with use of a microplanter, this diluted solution was inoculated each about 5 μl on MH agar media containing the test compounds. Thus, the minimum concentration of the test compound in which no growth of the test microorganism was observed after the incubation at 37° C. for 18 hours was regarded as Minimum Inhibitory Concentration (MIC). Incidentally, all of the test organisms used here were standard strains.

[2] = test system: P. mirabilis IFO 3849; conditions: Proteus mirabilis, IFO3849, MH agar, 37° C., 18 hours
Procedure: as §1, §2

[3] = test system: M. luteus ATCC 9341; conditions: Micrococcus luteus, ATCC9341, MH agar, 37° C., 18 hours
Procedure: as §1, §2

[4] = test system: S. aureus Terajima; conditions: Staphylococcus aureus, MH agar, 37° C., 18 hours
Procedure: as §1, §2

[5] = test system: S. marcescens IAM 1184; conditions: Serratia marcescens, IAM1184, MH agar, 37° C., 18 hours
Procedure: as §1, §2

[6] = test system: S. enteritidis G14; conditions: Salmonella enterica, MH agar, 37° C., 18 hours
Procedure: as §1, §2

[7] = test system: S. pyogenes Cook; conditions: Streptococcus pyogenes, MH agar, 37° C., 18 hours
Procedure: as §1, §2

[8] = test system: B. subtilis ATCC 6633; conditions: Bacillus subtilis, ATCC6633, MH agar, 37° C., 18 hours
Procedure: as §1, §2

[9] = test system: S. aureus MS353; conditions: Staphylococcus aureus, MH agar, 37° C., 18 hours
Procedure: as §1, §2

[10] = test system: E. aerogenes ATCC 13048; conditions: Klebsiella aerogenes, ATCC13048, MH agar, 37° C., 18 hours
Procedure: as §1, §2

[11] = test system: E. cloacae 963; conditions: Enterobacter cloacae, MH agar, 37° C., 18 hours
Procedure: as §1, §2

[12] = test system: S. schottmuelleri 8006; conditions: MH agar, 37° C., 18 hours
Procedure: as §1, §2

[13] = test system: E. coli K-12 C600; conditions: Escherichia coli, K12C600, MH agar, 37° C., 18 hours
Procedure: as §1, §2

[14] = test system: S. typhimurium 11D971; conditions: Salmonella enterica, MH agar, 37° C., 18 hours
Procedure: as §1, §2

[15] = test system: S. typhi 901; conditions: Salmonella enterica, 18 h
Procedure: as §1, §2

[16] = test system: S. aureus FDA209P JC-1; conditions: Staphylococcus aureus, MH agar, 37° C., 18 hours
Procedure: as §1, §2

[17] = test system: P. vulgaris HX-19; conditions: Proteus vulgaris, HX19, MH agar, 37° C., 18 hours
Procedure: as §1, §2

[18] = test system: E. coli NIHJ JC-2; conditions: Escherichia coli, NIHJJC2, MH agar, 37° C., 18 hours
Procedure: as §1, §2

[19] = test system: P. vulgaris OX-19; conditions: Proteus vulgaris, OX19, MH agar, 37° C., 18 hours
Procedure: as §1, §2

[20] = test system: P. rettgeri IFO 3850; conditions: Providencia rettgeri, IFO3850, MH agar, 37° C., 18 hours
Procedure: as §1, §2

[21] = test system: M. morganii IFO 3848; conditions: Morganella morganii, IFO3848, MH agar, 37° C., 18 hours
Procedure: as §1, §2

[22] = test system: S. paratyphi 1015; conditions: Salmonella enterica, 18 h
Procedure: as §1, §2

C[C@@H](O)[C@H]1C(=O)N2C(C(=O)O)=C(SC3CN(C4=NCCS4)C3)[C@H](C)[C@H]12 [compound (16), (1R, 5S, 6S)-2-[1-(1,3-thiazolin-2-yl)azetidin-3-yl]thio-6-[(R)-1-hydroxyethyl]-1-methylcarbapen-2-em-3-carboxylate]
MIC [1]: 0.013 µg/mL (≈ 0.0339 µM) | MIC [2]: 0.39 µg/mL (≈ 1.02 µM) | MIC [3]: 0.2 µg/mL (≈ 0.522 µM) | MIC [4]: ≤ 0.006 µg/mL | MIC [5]: 0.05 µg/mL (≈ 0.13 µM) | MIC [6]: 0.39 µg/mL (≈ 1.02 µM) | MIC [7]: ≤ 0.006 µg/mL | MIC [8]: 0.025 µg/mL (≈ 0.0652 µM) | MIC [9]: ≤ 0.006 µg/mL | MIC [10]: 0.1 µg/mL (≈ 0.261 µM) | MIC [11]: 0.05 µg/mL (≈ 0.13 µM) | MIC [12]: 0.025 µg/mL (≈ 0.0652 µM) | MIC [13]: 0.1 µg/mL (≈ 0.261 µM) | MIC [14]: 0.025 µg/mL (≈ 0.0652 µM) | MIC [15]: ≤ 0.006 µg/mL | MIC [16]: 0.013 µg/mL (≈ 0.0339 µM) | MIC [17]: 0.1 µg/mL (≈ 0.261 µM) | MIC [18]: 0.013 µg/mL (≈ 0.0339 µM) | MIC [19]: 0.1 µg/mL (≈ 0.261 µM) | MIC [20]: 0.39 µg/mL (≈ 1.02 µM) | MIC [21]: 0.39 µg/mL (≈ 1.02 µM) | MIC [22]: 0.05 µg/mL (≈ 0.13 µM)
